Consider one compound from patent US10317418B2, “Use of ghrelin or functional ghrelin receptor agonists to prevent and treat stress-sensitive psychiatric illness” (Massachusetts Institute of Technology, priority 2015, dated 2019).

The subject of data set [1] is Long Evans rats. The data set is described as follows: auditory Pavlovian fear conditioning and extinction testing, unstressed rats. Type of data set: in vivo, rat. The procedure: All experiments used adult, male Long Evans rats (300-350 g, Charles River, Raleigh, N.C. or 250-275 g, Taconic, Germantown, N.Y.), individually housed (68-72° F.; 12-h light/dark cycle, 0700 h lights on). Control animals were housed in separate cubicles from stressed animals. Water and food was given ad libitum. All procedures were approved by the Institutional Animal Care and Use Committee of the Massachusetts Institute of Technology and the Animal Care and Use Review Office of the US Army Medical Research and Materiel Command and in accordance with the US National Institutes of Health (NIH) Guide for the Care and Use of Laboratory Animals.
(§1) Some rats received systemic or intra-BLA delivery of ibutamoren mesylate (IBU). For systemic drug delivery, rats were injected with 1 ml kg^−1 intraperitoneal injection (i.p.) of either vehicle or drug. […] A concentration of 0.5 mg ml^−1, diluted in saline, was used. For experiments using intra-BLA drug delivery, ibutamoren mesylate was solubilized in artificial cerebrospinal fluid (pH=7.4) to a concentration of 0.5 μg μl^−1.
Some rats received bilateral implants of stainless steel cannulae aimed at the BLA. Rats were anesthetized with a cocktail of 10 mg kg^−1 acepromazine, 100 mg kg^−1 xylazine, and 100 mg kg^−1 ketamine (1 ml kg^−1; i.p.) and placed in a dual arm stereotaxic frame (Kopf Instruments; Tujunga, Calif.). The rats were then implanted with 23 gauge guide cannulae 1 mm above LA using the following coordinates, relative to bregma and brain surface: A/P −2.0, M/L+/−5.3, D/V −5.4. Three jeweler screws were also implanted in the skull, and dental acrylic was used to secure the implant. Dummy cannulae extending 1 mm past the tip of the guide cannulae were placed into the guide cannula after surgery and changed every other day. Rats received 0.03 mg kg^−1 of Buprenex (1 ml kg^−1; subcutaneous injection (s.c.)) for post-operative pain management. All rats recovered for a minimum of 5 days.
A subset of rats were subjected to auditory Pavlovian fear conditioning and extinction testing. All rats were transported in their home cages from the vivarium to a holding room in which no behavioral testing was conducted. This transport occurred at least one hour prior to the onset of any behavioral testing.
For catheterized rats, each rat was placed in a fear conditioning box (MedAssociates; St. Albans, Vt.) scented with Pine-Sol (1%) for 250 sec total. The rats had 3 minutes to explore the novel environment before tone (10 seconds, 85 dB)-shock (2 seconds, 0.35 mA; coterminating with the tone) pairings [20 second intertrial intervals (ITIs)] were administered. Long-term context and tone fear memory was assessed the following day. For context extinction, the rats were returned to the fear conditioning context for a total of 10 minutes. Four hours later, tone extinction was administered by placing the rats in the fear conditioning boxes with an altered context. White Plexiglas inserts were used to obscure the back and side walls and cover the grid floor. Room and box lights were turned off, a red light provided illumination (15 W), and acetic acid (1%) was used to scent the boxes. Two minutes were allowed for exploration before a continuous tone (8 minutes, 87 dB) was presented. For rats with BLA cannula implants, all conditioning and testing was as described, except context and tone extinction were separated by 24 hours.
(§2) On the fear conditioning day, rats were exposed to four tone-shock pairings with a 60 second ITI (460 seconds total time). For context extinction, rats were returned to the conditioning context for 12 minutes total. For tone extinction, rats were exposed to twelve tones (10 seconds, 85 dB) for 960 seconds total. Conditioning, context and tone extinction sessions were separated by 24 hours.
Infrared cameras (frame rate: 30 Hz) and VideoFreeze software (MedAssociates; St Albans, Vt.) were used to record behavior during all training and testing sessions. […]

Data set [2] concerns Long Evans rats. Kind of data set: auditory fear conditioning after chronic immobilization stress or handling. It is filed as in vivo, rat. To be noted: FIG. 4F. The procedure: as §1, §2
Infrared cameras (frame rate: 30 Hz) and VideoFreeze software (MedAssociates; St Albans, Vt.) were used to record behavior during all training and testing sessions. Motor activity was measured using the “motion index”, a number generated by the VideoFreeze software, which corresponds roughly to the change in grayscale values across the image pixels; a higher motion index indicates greater movement. Freezing was measured by computing the number of observations below a threshold motion index and converting this number to a percentage of all observations for the period of interest. The threshold defined the value of the motion index below which only motor activity related to breathing was observed. […]
To determine whether the decrease in ghrelin binding sites in the BLA of chronically stressed rats exerts a functional impact, rats received either chronic immobilization stress or handling for two weeks followed by auditory fear conditioning (FIG. 4E). IBU, at the dose shown to reduce fear memory strength in unstressed rats (FIGS. 3A-D), or VEH was injected immediately after conditioning and long-term auditory fear memory was assessed two days later. […]

Data set [3] concerns Long Evans rats. Kind of data set: food consumption assay and body weight after IBU. It is filed as in vivo, rat. The procedure: as §1
For some rats, food consumption was monitored. After fear conditioning as described above, each rat was returned to its home cage in a holding room. Each rat had 200 g of chow placed in the food hopper. Food was quickly weighed and returned 30 minutes, 1 hour, 2 hours, and 3 hours after fear conditioning ended. Three days after fear recall testing (five days after fear conditioning), food consumption was measured during the same time points within the day, but while the rats were undisturbed in their home cages in the vivarium.
To assess fear memory strength, conditional freezing was expressed as the percentage of time spent freezing, a probability estimate amenable to analysis with parametric statistics. These estimates of freezing, as well as hormone levels and data related to food consumption and body weight, were analyzed using ANOVA. Post hoc Fisher's PLSD tests were performed after a significant omnibus F-ratio.

The conditions of data set [4]: in vivo; cited from earlier work.
Setting [5] is: intra-BLA infusion (0.5 μg/μl) prior to fear conditioning, FIG. 3B.
The mark [6] stands for this setting: systemic (i.p., 0.5 mg/ml) prior to fear conditioning, vs vehicle, FIG. 3A.
Where [7] appears, read: systemic, 0.5 mg/mL, following fear conditioning, FIG. 7A.

Entries after “also recorded” stand apart in the source; their conditions may differ. Structures can show the parent of a compound that is named as a salt. Some results are limits rather than exact numbers.

With `CC(C)(N)C(=O)N[C@H](COCc1ccccc1)C(=O)N1CCC2(CC1)CN(S(C)(=O)=O)c1ccccc12` [IBU, ibutamoren mesylate], the fear acquisition entry in the data set on Long Evans rats [1] (setting [5]) is reported as “without any effect; also recorded: without affecting”; in the data set with Long Evans rats [1] (setting [6]), “without impacting; also recorded: without affecting”; with Long Evans rats [1] (setting [7]) it was “without any effect; also recorded: without affecting”. In addition, the “long-term auditory fear memory” value is reported as “strongly inhibited; also recorded: significantly impaired” in the data set with Long Evans rats [1] (setting [5]); “significantly lower levels; also recorded: significantly impaired” in the data set on Long Evans rats [1] (systemic (i.p., 1 ml/kg of 0.5 mg/ml) 30 minutes prior to fear conditioning, vs vehicle, FIG. 3A); “strongly inhibited; also recorded: significantly impaired” in the data set on Long Evans rats [1] (setting [7]); “reduced; also recorded: significantly impaired” in the data set with Long Evans rats [2] (unstressed (handled) rats, systemic IBU). The long-term contextual memory result in the data set on Long Evans rats [1] (setting [5]) was “strongly inhibited; also recorded: significantly impaired”; with Long Evans rats [1] (setting [6]) it was “without impacting; also recorded: without affecting”. Also, the “long-term contextual fear memory” value in the data set on Long Evans rats [1] (setting [7]) is “strongly inhibited; also recorded: significantly impaired”. The “long-term auditory fear memory (conditional freezing)” value in the data set on Long Evans rats [2] (rats exposed to chronic immobilization stress (14 days), systemic IBU) was “no effect and not”. Also, the “freezing during fear conditioning (group differences)” value in the data set with Long Evans rats [2] (stressed and unstressed rats, IBU or VEH) is “No group differences”. The “body weight measured 24 hours after injection” value with Long Evans rats [3] (intra-BLA infusion, FIG. 3D) is on record as “does not change”. The body weight entry with Long Evans rats [3] (systemic, 0.5 mg/mL, IBU vs vehicle group, FIG. 3C right panel) is recorded as “did not differ”. Moreover, the “food consumption shortly following injection” value in the data set with Long Evans rats [3] (systemic, 0.5 mg/mL, relative to body weight, FIG. 3C left panel) is “does not impact”; with Long Evans rats [3] (systemic, 10 mg/mL (twenty times the dose), FIG. 7B left panel), “does not impact”. Also, in the data set with Long Evans rats [3] (systemic, 0.5 mg/mL, relative to body weight, FIG. 3C middle panel), the “food consumption cumulatively, over the 24 hours following injection” value is “does not impact”. For the same compound, in the data set with Long Evans rats [3] (systemic, 10 mg/mL (twenty times the dose), FIG. 7B middle panel), the “food consumption cumulatively, over the 24 h following injection” value is “does not impact”. In data set [4], the “crossing of the blood-brain barrier” value was “readily crosses”. In addition, the half-life in data set [4] was over 6 h.

What is called half-life is the time needed for the level to fall by half in the phase considered.
